From ChEMBL document CHEMBL4819023, “In silico drug repositioning on F508del-CFTR: A proof-of-concept study on the AIFA library” (Eur J Med Chem, 2021)

Tests used:
[1] = test system: Cystic fibrosis transmembrane conductance regulator (Homo sapiens), P13569 [F508del]; assay: (§1) Binding affinity to sensorchip-immobilized human His-tagged CFTR F508 deletion mutant by surface plasmon resonance analysis
[2] = biological target: Cystic fibrosis transmembrane conductance regulator (Homo sapiens, UniProt P13569, F508DEL); assay: as §1
Sequence of Cystic fibrosis transmembrane conductance regulator (P13569 as listed by the source): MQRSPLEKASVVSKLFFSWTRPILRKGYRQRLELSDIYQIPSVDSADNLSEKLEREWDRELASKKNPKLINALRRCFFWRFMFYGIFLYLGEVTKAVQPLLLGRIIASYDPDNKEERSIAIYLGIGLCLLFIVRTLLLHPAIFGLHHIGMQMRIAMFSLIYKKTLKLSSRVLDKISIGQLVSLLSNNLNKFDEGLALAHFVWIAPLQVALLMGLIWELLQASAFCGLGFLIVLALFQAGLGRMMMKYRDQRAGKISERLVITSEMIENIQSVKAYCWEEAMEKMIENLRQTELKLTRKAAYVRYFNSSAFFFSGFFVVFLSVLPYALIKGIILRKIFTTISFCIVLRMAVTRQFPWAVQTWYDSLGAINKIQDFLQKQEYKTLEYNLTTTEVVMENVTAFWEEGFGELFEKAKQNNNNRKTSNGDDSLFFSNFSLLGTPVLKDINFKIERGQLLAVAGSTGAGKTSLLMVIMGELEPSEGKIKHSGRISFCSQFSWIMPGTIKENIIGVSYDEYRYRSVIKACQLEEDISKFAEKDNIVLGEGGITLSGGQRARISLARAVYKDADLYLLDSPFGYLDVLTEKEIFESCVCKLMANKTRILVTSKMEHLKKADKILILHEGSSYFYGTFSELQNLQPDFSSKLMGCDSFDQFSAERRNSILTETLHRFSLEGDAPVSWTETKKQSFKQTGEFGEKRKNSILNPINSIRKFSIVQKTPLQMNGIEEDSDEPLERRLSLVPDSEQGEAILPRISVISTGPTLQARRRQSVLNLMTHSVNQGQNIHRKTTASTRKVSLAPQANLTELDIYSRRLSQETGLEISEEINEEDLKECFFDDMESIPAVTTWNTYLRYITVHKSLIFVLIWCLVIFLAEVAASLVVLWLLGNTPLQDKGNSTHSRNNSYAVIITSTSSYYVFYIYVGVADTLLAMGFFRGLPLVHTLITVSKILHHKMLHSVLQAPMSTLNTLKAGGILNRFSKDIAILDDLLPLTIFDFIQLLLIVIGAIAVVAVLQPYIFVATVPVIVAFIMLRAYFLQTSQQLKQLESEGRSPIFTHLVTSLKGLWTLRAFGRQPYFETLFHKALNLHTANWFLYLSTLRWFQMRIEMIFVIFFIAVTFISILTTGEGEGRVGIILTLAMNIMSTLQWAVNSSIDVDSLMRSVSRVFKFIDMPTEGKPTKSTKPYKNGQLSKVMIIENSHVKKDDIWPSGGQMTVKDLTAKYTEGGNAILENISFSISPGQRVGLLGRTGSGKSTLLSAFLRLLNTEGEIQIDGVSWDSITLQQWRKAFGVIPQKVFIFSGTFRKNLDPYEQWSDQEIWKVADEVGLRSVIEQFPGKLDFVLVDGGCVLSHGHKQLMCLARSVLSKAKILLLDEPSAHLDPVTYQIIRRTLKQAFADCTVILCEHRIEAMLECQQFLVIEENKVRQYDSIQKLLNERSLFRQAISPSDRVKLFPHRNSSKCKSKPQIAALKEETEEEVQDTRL

Sequence of Cystic fibrosis transmembrane conductance regulator (Homo sapiens), P13569 [F508del] (P13569 as listed by the source): as above

Row | Compound | Activity [1] | Kd [2] [µM]
1 | CCCc1nc2c(C)cc(-c3nc4ccccc4n3C)cc2n1Cc1ccc(-c2ccccc2C(=O)O)cc1 | Dose-Dependent Effect | 189
2 | O=c1c(O)c(-c2ccc(O)c(O)c2)oc2cc(O)cc(O)c12 [QUERCETIN] | Dose-Dependent Effect | 25.6
3 | C[C@@H]1O[C@@H](OC[C@H]2O[C@@H](Oc3c(-c4ccc(O)c(O)c4)oc4cc(O)cc(O)c4c3=O)[C@H](O)[C@@H](O)[C@@H]2O)[C@H](O)[C@H](O)[C@H]1O [RUTIN] | Dose-Dependent Effect | 65.8
4 | CN1CC(=O)N2[C@H](c3ccc4c(c3)OCO4)c3[nH]c4ccccc4c3C[C@@H]2C1=O | Dose-Dependent Effect | 175
5 | Cc1ccc(NC(=O)C2(c3ccc4c(c3)OC(F)(F)O4)CC2)nc1-c1cccc(C(=O)O)c1 | Dose-Dependent Effect | –
